Earlier results in patent publication US11453692B2, “Non-caloric sweeteners and methods for synthesizing” (Conagen Inc., priority 2014, dated 2022).

Conditions: sweetness relative to sucrose

Molecule	times sweeter than sucrose
Stevioside	100-150 times
C=C1C[C@@]23CCC4[C@](C)(C(=O)OC5OC(CO)C(O)C(O)C5O)CCC[C@@]4(C)[C@@H]2CC(OC2OC(CO)C(O)C(OC4OC(CO)C(O)C(O)C4O)C2OC2OC(C)C(O)C(O)C2O)C1C3 (some centres unmarked) [Rebaudioside C]	40-60 times
